Results: ChEMBL document CHEMBL1129382, “Synthesis of chiral 1-(2'-amino-2'-carboxyethyl)-1,4-dihydro-6,7-quinoxaline-2,3-diones: alpha-amino-3-hydroxy-5-methyl-4-isoxazolepropionate receptor agonists and antagonists” (J Med Chem, 1996)

Key:
[1] = target: Glutamate receptor ionotropic, AMPA (Rattus norvegicus, UniProt P19490+P19491+P19492+P19493); experiment: Compound (100 uM) was evaluated for inhibition of Ionotropic glutamate receptor AMPA by using [3H]- AMPA; format: protein-complex assay
[2] = target: Glutamate receptor ionotropic, kainate; experiment: Inhibition of [3H]- Kainate binding to Ionotropic glutamate receptor kainate in brain homogenates.; format: tissue-based, Rattus norvegicus
[3] = target: Glutamate receptor ionotropic, AMPA (Rattus norvegicus) (UniProt P19491+P19492+P19493+P19490); experiment: Displacement of [3H]- AMPA from Ionotropic glutamate receptor of rat brain; design: concentration or dose not given beside the values; details: concentration not given here
[4] = target: Glutamate receptor ionotropic, kainate (Rattus norvegicus) (UniProt P22756+Q01812+P42260+P42264+Q63273); experiment: Displacement of [3H]- Kainate from Ionotropic glutamate receptor kainate of rat brain homogenates.; format: tissue-based; design: concentration or dose not given beside the values; details: concentration not given here
[5] = species on record: Rattus norvegicus; experiment: Functional antagonist activity was determined by the ability to inhibit AMPA stimulated [3H]norepinephrine release from rat hippocampal slices.; details: Hippocampus

| Structure (SMILES) | IC50 [1] [µM] | IC50 [2] [µM] | inhibition [3] [%] | inhibition [4] [%] | EC50 [5] [µM] |
| --- | --- | --- | --- | --- | --- |
| Cc1cc(N)c(NC(=O)[C@@H](CO)NC(=O)OC(C)(C)C)cc1C | 4 | 11 | – | – | – |
| Cc1cc2[nH]c(=O)c(=O)n(C[C@H](CO)NC(=O)OC(C)(C)C)c2cc1C | 47 | 5 | – | – | – |
| Cc1cc2[nH]c(=O)c(=O)n(C(=O)[C@@H](CO)NC(=O)OC(C)(C)C)c2cc1C | 12 | 11 | – | – | – |
| Nc1ccccc1NC[C@H](N)C(=O)O | – | – | 70 | 14 | – |
| N[C@H]1COC1=O | – | – | 11 | 5 | – |
| O=c1[nH]c2cc([N+](=O)[O-])c([N+](=O)[O-])cc2[nH]c1=O [DNQX] | – | 0.74 | – | – | – |
| N[C@@H](Cn1c(=O)c(=O)[nH]c2ccccc21)C(=O)O | – | 0.23 | 95 | 27 | – |
| Cc1cc2[nH]c(=O)n(C(=O)[C@@H](N)CO)c2cc1C | – | – | 21 | 13 | – |
| N[C@@H]1COC1=O | – | – | 0 | 4 | – |
| Cc1cc(N)c(NC[C@H](N)C(=O)O)cc1C | – | – | 15 | 7 | – |
| Cc1cc2[nH]c(=O)c(=O)n(C[C@@H](N)C(=O)O)c2cc1C | – | 22 | 62 | 27 | 300 |
| Cc1cc(N)c(NC[C@@H](N)C(=O)O)cc1C | – | – | 15 | 0 | – |
| Cc1cc2[nH]c(=O)c(=O)n(C[C@H](N)C(=O)O)c2cc1C | – | 51 | 66 | 38 | 290 |
| Nc1ccccc1NC[C@@H](N)C(=O)O | – | – | 0 | 0 | – |
| Cc1cc2[nH]c(=O)c(=O)n(C(=O)[C@H](N)CO)c2cc1C | – | – | 14 | 15 | – |
| N[C@H](Cn1c(=O)c(=O)[nH]c2ccccc21)C(=O)O [listing 1 of 3 here] | – | – | 77 | 5 | – |
| N[C@H](Cn1c(=O)c(=O)[nH]c2ccccc21)C(=O)O [listing 2 of 3 here] | – | 0.69 | – | – | – |
| N[C@H](Cn1c(=O)c(=O)[nH]c2ccccc21)C(=O)O [listing 3 of 3 here] | – | 38 | – | – | – |
| Cc1cc2[nH]c(=O)c(=O)n(C(=O)[C@@H](N)CO)c2cc1C | – | – | 24 | 16 | – |
| O=[N+]([O-])c1cc2nc(O)c(O)nc2cc1[N+](=O)[O-] | – | – | 99 | 81 | – |
